Literature values, collected in article PMC6151732, “A New Noncanonical Anionic Peptide That Translocates a Cellular Blood–Brain Barrier Model” (Molecules : A Journal of Synthetic Chemistry and Natural …, 2017).

System: brain
Description: Dengue virus type-2 capsid (DEN2C) protein-derived membrane-active peptides have been thoroughly studied by our group. […] An additional study was performed using the four α-helical domains of the DEN2C protein (α1, α2, α3 and α4) to identify trans-BBB peptides. […] PepH3, a hydrophobic peptide, is able to transcytose across the cell, while other peptides accumulate inside the endothelial membrane ...

In the case of AGILKRW [PepH3], the Brain uptake is listed as “high brain uptake”.
